According to patent publication US10155021B2, “Antimicrobial 4-oxoquinolizines” (Emergent Product Development Gaithersburg Inc., priority 2011, dated 2018):
≈ marks a conversion by molar mass, not a printed value. Where two headings read alike, the source gives them in different places.

Assays:
[1] = system: P. aeruginosa 27853; assay: MIC, standard panel of Gram-positive and Gram-negative bacteria (CLSI); format: cell-based, Pseudomonas aeruginosa; conditions: Pseudomonas aeruginosa, 27853; CAMHB; read-out: MIC P. aeruginosa 27853
[2] = system: B. pseudomallei; assay: microbe, parasite or virus in culture; format: cell-based; conditions: Burkholderia pseudomallei, read-out: MIC B. pseudomallei
[3] = system: Klebsiella ssp KPC-3; assay: MIC, panel of quinolone-resistant strains (CLSI); format: cell-based, Klebsiella spp; conditions: KPC3, CIP R, ESBL
[4] = system: E. coli 2906; assay: MIC, panel of quinolone-resistant strains (CLSI); format: cell-based; conditions: Escherichia coli, CIP R
[5] = system: P. aeruginosa 143-3-03; assay: MIC, panel of quinolone-resistant strains (CLSI); format: cell-based; conditions: Pseudomonas aeruginosa, 143303; CIP I, POL R
[6] = system: F. tularensis; assay: microbe, parasite or virus in culture; format: cell-based; conditions: Francisella tularensis, read-out: MIC F. tularensis
[7] = system: Pseudomonas ssp PER-1; assay: MIC, panel of quinolone-resistant strains (CLSI); format: cell-based, Pseudomonas spp; conditions: PER1, CIP R, ESBL
[8] = system: S. pneumoniae 1027; assay: MIC, panel of quinolone-resistant strains (CLSI); format: cell-based; conditions: Streptococcus pneumoniae, LEV R
[9] = system: E. coli CTX-M-15; assay: MIC, panel of quinolone-resistant strains (CLSI); format: cell-based; conditions: Escherichia coli, CTXM15; CIP R, ESBL
[10] = system: Acinetobacter sp. (H064200250); assay: Preliminary MBC without and with sub-inhibitory polymyxin B (Example 4); format: cell-based; conditions: Acinetobacter, without polymyxin B, preliminary MBC, read-out: MBC without PB
Outline: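 Bactericidal endpoint scored visually on plates incubated at 37° C (18-20 hours): the lowest concentration where growth fell about 90% versus the positive control, generally leaving one colony or none.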

[11] = system: B. thailandensis; assay: microbe, parasite or virus in culture; format: cell-based, Burkholderia thailandensis
[12] = system: E. coli 25922; assay: MIC, standard panel of Gram-positive and Gram-negative bacteria (CLSI); format: cell-based, Escherichia coli; conditions: Escherichia coli, 25922; CAMHB; read-out: MIC E. coli 25922
[13] = system: A. baumannii J2; assay: Preliminary MBC without and with sub-inhibitory polymyxin B (Example 4); format: cell-based, Acinetobacter baumannii; conditions: A. baumannii J2; +[…] polymyxin B; 2nd experiment; preliminary MBC
[14] = system: E. faecium 19434; assay: MIC, standard panel of Gram-positive and Gram-negative bacteria (CLSI); format: cell-based, Enterococcus faecium; conditions: Enterococcus faecium, 19434; CAMHB; read-out: MIC E. faecium 19434
[15] = system: B. abortus; assay: microbe, parasite or virus in culture; format: cell-based; conditions: Brucella abortus, read-out: MIC B. abortus
[16] = system: P. aeruginosa 1388-3-02; assay: MIC, panel of quinolone-resistant strains (CLSI); format: cell-based; conditions: Pseudomonas aeruginosa, 1388302; CIP R, POL R
[17] = system: A. baumannii J2; assay: MIC without and with sub-inhibitory polymyxin B (Example 4); format: cell-based, Acinetobacter baumannii; conditions: A. baumannii J2; +[…] polymyxin B; 2nd experiment; visual reading
[18] = system: S. aureus 101; assay: MIC, standard panel of Gram-positive and Gram-negative bacteria (CLSI); format: cell-based, Staphylococcus aureus; conditions: Staphylococcus aureus, 101; CAMHB; read-out: MIC S. aureus 101
[19] = system: Acinetobacter sp. (H064200250); assay: MIC without and with sub-inhibitory polymyxin B (Example 4); format: cell-based; conditions: Acinetobacter, without polymyxin B, read-out: MIC without PB
[20] = system: resistant strains of A. baumannii and one strain of Acinetobacter sp.; assay: MIC without and with sub-inhibitory polymyxin B, whole panel / MIC ranges (Example 4; also strains not listed separately); format: cell-based; conditions: Acinetobacter baumannii, 1st experiment
[21] = system: B. anthracis; assay: microbe, parasite or virus in culture; format: cell-based; conditions: Bacillus anthracis, read-out: MIC B. anthracis
[22] = system: Acinetobacter spp. H064200250; assay: MIC determination for Acinetobacter strains (Example 3); format: cell-based, Acinetobacter sp.; conditions: LEV R, CIP R, MRP R, IMP I
[23] = Acinetobacter spp. H064200250, 1st experiment

Q: Which results are given for `Cc1c(-c2ccc(CN)cc2)c(F)cn2c(=O)c(C(=O)O)cc(C3CC3)c12` [Compound 6, 8-(4-aminomethyl-phenyl)-1-cyclopropyl-7-fluoro-9-methyl-4-oxo-quinolizine-3-carboxylic acid]?
A: MIC [1]: 2 µg/mL (≈ 5.46 µM); MIC [2]: 2 µg/mL (≈ 5.46 µM); MIC [3]: 16 µg/mL (≈ 43.7 µM); MIC [4]: 16 µg/mL (≈ 43.7 µM); MIC [5]: 8 µg/mL (≈ 21.8 µM); MIC [6]: 0.125 µg/mL (≈ 0.341 µM); MIC [7]: 16 µg/mL (≈ 43.7 µM); MIC [8]: 2 µg/mL (≈ 5.46 µM); MIC [9]: 16 µg/mL (≈ 43.7 µM); MBC ([10]; Acinetobacter spp. H064200250 (OXA51), 2nd experiment): > 32 µg/mL; MBC [10, 23]: 8 µg/mL (≈ 21.8 µM); MIC90 ([11]; Burkholderia thailandensis, read-out: MIC90 B. thailandensis): 0.39 µg/mL (≈ 1.06 µM); Dilutions improvement shift on B. thailandensis MIC90 (between pH 7 and pH 5) ([11]; pH 7 versus pH 5): No; MIC [12]: < 0.03 µg/mL; MBC +[…] PB [13]: 0.25 µg/mL (≈ 0.682 µM); MIC [14]: 4 µg/mL (≈ 10.9 µM); MIC [15]: 0.5 µg/mL (≈ 1.36 µM); MIC [16]: 32 µg/mL (≈ 87.3 µM); MIC +[…] PB [17]: 0.25 µg/mL (≈ 0.682 µM); MIC [18]: 2 µg/mL (≈ 5.46 µM); MIC ([19]; Acinetobacter spp. H064200250 (OXA51), 2nd experiment, visual reading): 16 µg/mL (≈ 43.7 µM); MIC [19, 23]: 8 µg/mL (≈ 21.8 µM); MIC ([20]; A. baumannii A14, without polymyxin B, read-out: MIC without PB): 32 µg/mL (≈ 87.3 µM); MIC ([20]; NCTC13301, A. baumannii NCTC 13301, without polymyxin B, read-out: MIC without PB): 32 µg/mL (≈ 87.3 µM); MIC ([20]; read-out: MIC range without PB 01-10-2008 n = 8, without polymyxin B, 8 strains): 4 to 32 µg/mL (≈ 10.9 to 87.3 µM); MIC [21]: 0.125 µg/mL (≈ 0.341 µM); MIC [22]: 8 µg/mL (≈ 21.8 µM)
